Test results from patent publication US10654845B2, “2-(het)aryl-substituted fused bicyclic heterocycle derivatives as pesticides” (BAYER CROPSCIENCE AKTIENGESELLSCHAFT, priority 2015, dated 2020).

Tests used:
[1] = log P by HPLC on reversed-phase column (C18), EEC Directive 79/831 Annex V.A8
Excerpt: Called log P (HCOOH) in the table.
Called log P (neutral) in the table.

Phaedon cochleariae = Phaedon cochleariae spray test; assay type: in vivo; conditions: after 7 days, beetle larvae killed; for pest or weed control at 500 g/ha: Phaedon cochleariae, 168 h, read-out: efficacy in %
Experimental: Phaedon cochleariae-Spray Test
(§1) Solvent: 78.0 parts by weight of acetone
(§2) • 1.5 parts by weight of dimethylformamide Emulsifier: alkylaryl polyglycol ether
(§3) To produce a suitable preparation of active compound, 1 part by weight of active compound is dissolved using the stated parts by weight of solvent and made up with water containing an emulsifier concentration of 1000 ppm until the desired concentration is attained. To produce further test concentrations, the preparation is diluted with emulsifier-containing water.
After 7 days, the efficacy in % is determined. 100% means that all the beetle larvae have been killed; 0% means that no beetle larvae have been killed.

Myzus persicae = Myzus persicae spray test (Chinese cabbage leaf discs); assay type: in vivo; conditions: after 6 days, aphids killed; for efficacy in % / pest or weed control at 500 g/ha: 500 g/ha
Experimental: Myzus persicae Spray Test
Solvent: 78 parts by weight of acetone
as §2, §3
Discs of Chinese cabbage leaves (Brassica pekinensis) infested by all stages of the green peach aphid (Myzus persicae) are sprayed with an active compound preparation of the desired concentration.
After 6 days, the efficacy in % is determined. 100% means that all the aphids have been killed; 0% means that no aphids have been killed.

Tetranychus urticae = Tetranychus urticae spray test, OP-resistant; assay type: in vivo; conditions: after 6 days, spider mites killed
Experimental: Tetranychus urticae-Spray Test, OP-Resistant
as §1, §2, §3
Discs of bean leaves (Phaseolus vulgaris) infested with all stages of the greenhouse red spider mite (Tetranychus urticae) are sprayed with an active compound preparation of the desired concentration.
After 6 days, the efficacy in % is determined. 100% means that all the spider mites have been killed; 0% means that no spider mites have been killed.

Spodoptera frugiperda = Spodoptera frugiperda spray test; assay type: in vivo; conditions: 500 g/ha, after 7 days, caterpillars killed
Experimental: Spodoptera frugiperda-Spray Test Solvent: 78.0 parts by weight of acetone • • 1.5 parts by weight of dimethylformamide Emulsifier: alkylaryl polyglycol ether […] To produce further test concentrations, the preparation is diluted with emulsifier-containing water. Leaf disks of maize (Zea mays) are sprayed with an active compound preparation of the desired concentration and, after drying, populated with caterpillars of the armyworm (Spodoptera frugiperda).

Meloidogyne incognita = Meloidogyne incognita test; assay type: in vivo; conditions: 20 ppm, after 14 days, formation of galls
Experimental: Meloidogyne incognita-Test
Solvent: 125.0 parts by weight of acetone
To produce a suitable preparation of active compound, 1 part by weight of active compound is mixed with the stated amount of solvent and the concentrate is diluted with water to the desired concentration.
Vessels are filled with sand, active compound solution, an egg/larvae suspension of the southern root-knot nematode (Meloidogyne incognita) and lettuce seeds. The lettuce seeds germinate and the plants develop. The galls develop on the roots.
After 14 days, the nematicidal efficacy in % is determined by the formation of galls. 100% means that no galls were found; 0% means that the number of galls on the treated plants corresponds to the untreated control.

Lucilia cuprina = Lucilia cuprina test; assay type: in vivo; conditions: 100 ppm, after 2 days, L1 larvae
Experimental: (§4) Solvent: dimethyl sulphoxide
(§5) To produce a suitable preparation of active compound, 10 mg of active compound are mixed with 0.5 ml of dimethyl sulphoxide, and the concentrate is diluted with water to the desired concentration.
About 20 L1 larvae of the Australian sheep blowfly (Lucilia cuprina) are transferred into a test vessel containing minced horsemeat and the active compound preparation of the desired concentration.
After 2 days, the kill in % is determined. 100% means that all the larvae have been killed; 0% means that no larvae have been killed.

Ctenocephalides felis = Ctenocephalides felis oral test; assay type: in vivo; conditions: 100 ppm, after 2 days
Experimental: Ctenocephalides felis-Oral Test
as §4
To produce a suitable preparation of active compound, 10 mg of active compound are mixed with 0.5 ml of dimethyl sulphoxide. Dilution with citrated cattle blood gives the desired concentration.
About 20 unfed adult cat fleas (Ctenocephalides felis) are placed into a chamber which is closed at the top and bottom with gauze. A metal cylinder whose bottom end is closed with parafilm is placed onto the chamber. The cylinder contains the blood/active compound preparation, which can be imbibed by the fleas through the parafilm membrane.
After 2 days, the kill in % is determined. 100% means that all of the fleas have been killed; 0% means that none of the fleas have been killed.

Musca domestica = Musca domestica test; assay type: in vivo; conditions: 100 ppm, after 2 days, adult houseflies
Experimental: as §4, §5
Vessels containing a sponge treated with sugar solution and the active compound preparation of the desired concentration are populated with 10 adult houseflies (Musca domestica).
After 2 days, the kill in % is determined. 100% means that all of the flies have been killed; 0% means that none of the flies have been killed.

[2] = LC-MS acidic range, pH 2.7 (HCOOH), C18, 55° C.
[3] = reversed-phase HPLC column (C18), pH 2.7, logP-acidic, LC-MS acidic range, pH 2.7 (HCOOH), C18, 55° C.
[4] = reversed-phase HPLC column (C18), pH 7.8, log P (neutral), preparation examples, neutral range, pH 7.8
[5] = reversed-phase HPLC column (C18), pH 7.8, logP-neutral, LC-MS neutral range, pH 7.8, C18, 55° C.
[6] = Myzus persicae, foliar, 144 h, read-out: efficacy in %
[7] = LC-MS neutral range, pH 7.8, C18, 55° C.

SMILES | efficacy in % (Phaedon cochleariae; 500 g/ha) [%] | efficacy in % (Myzus persicae) [%] | efficacy in % (Tetranychus urticae; 500 g/ha) [%] | logP-acidic ([1]; pH 2.7) | logP-neutral ([1]; pH 7.8) | also measured
CCS(=O)(=O)c1ccc(N(C)N)nc1-c1nc2cc(C(F)(F)F)ncc2n1C [Example 74] | 100 | 90 | 90 |  |  | logP-acidic [1, 2]: 1.96
CCS(=O)(=O)c1ccc(C(=S)NC)nc1-c1nc2cc(C(F)(F)F)ncc2n1C [Example 34, 5-(Ethylsulphonyl)-N-methyl-6-[3-methyl-6-(trifluoromethyl)-3H-imidazo[4,5-c]pyridin-2-yl]pyridine-2-carbothioamide] |  |  | 100 |  |  | chromatographic logP [1, 3]: 2.8; chromatographic logP [1, 4]: 2.76; chromatographic logP [1, 5]: 2.76; pest or weed control at 500 g/ha (Myzus persicae; [6]): 90%
CCS(=O)(=O)c1ccc(C(=O)NC)nc1-c1nc2cc(C(F)(F)F)ncc2n1C [Example 31, 5-(Ethylsulphonyl)-N-methyl-6-[3-methyl-6-(trifluoromethyl)-3H-imidazo[4,5-c]pyridin-2-yl]pyridine-2-carboxamide] |  |  | 100 |  |  | chromatographic logP [1, 3]: 2.01; chromatographic logP [1, 4]: 1.96; chromatographic logP [1, 5]: 1.96; pest or weed control at 500 g/ha (Phaedon cochleariae; 500 g/ha): 100%; pest or weed control at 500 g/ha (Myzus persicae; [6]): 100%
CCS(=O)(=O)c1ccc(NS(=O)(=O)C(F)(F)F)nc1-c1nc2cc(C(F)(F)F)ncc2n1C [Example 58] |  |  | 90 | 2.37 | 1.20 | 
CCS(=O)(=O)c1ccc(N(C)C)nc1-c1nc2cc(C(F)(F)F)ncc2n1C [Example 64] | 100 | 90 |  |  |  | logP-acidic [1, 2]: 2.55; logP-neutral [1, 7]: 2.49; efficacy in % (Spodoptera frugiperda): 100%
CCS(=O)(=O)c1ccc(NC(=O)C(F)F)nc1-c1nc2cc(C(F)(F)F)ncc2n1C [Example 24] | 100 | 100 | 90 | 2.34 | 2.22 | 
CCS(=O)(=O)c1ccc(NC(C)=O)nc1-c1nc2cc(C(F)(F)C(F)(F)F)ncc2n1C [Example 62] | 100 |  | 90 | 2.54 | 2.47 | efficacy in % (Spodoptera frugiperda): 100%; nematicidal efficacy in % (Meloidogyne incognita): 90%
CCS(=O)(=O)c1ccc(N(C)NC)nc1-c1nc2cc(C(F)(F)F)ncc2n1C [Example 60, 1-[5-Ethylsulphonyl-6-[3-methyl-6-(trifluoromethyl)imidazo[4,5-c]pyridin-2-yl]-2-pyridyl]-1,2-dimethylhydrazine] |  |  |  |  |  | chromatographic logP ([1]; pH 2.7): 2.37; chromatographic logP ([1]; pH 7.8): 2.39; pest or weed control at 500 g/ha (Phaedon cochleariae; 500 g/ha): 100%; pest or weed control at 100 g/ha (Myzus persicae; Myzus persicae, foliar, 144 h, 100 g/ha, read-out: efficacy in %): 90%; efficacy in % (Tetranychus urticae; 100 g/ha): 90%
CCS(=O)(=O)c1ccc(OC(C)C)nc1-c1nc2cc(C(F)(F)F)ncc2n1C [Example 18] |  |  |  | 3.31 | 3.22 | nematicidal efficacy in % (Meloidogyne incognita): 90%
CCS(=O)(=O)c1ccc(NC(=O)C(C)CSC)nc1-c1nc2cc(C(F)(F)F)ncc2n1C (centres unmarked) [Example 65] | 100 | 100 |  | 2.94 | 2.78 | nematicidal efficacy in % (Meloidogyne incognita): 100%
CCS(=O)(=O)c1ccc(NC(=O)COC)nc1-c1nc2cc(C(F)(F)F)ncc2n1C [Example 21] | 100 | 90 |  | 2.22 | 2.17 | efficacy in % (Spodoptera frugiperda): 100%
CCS(=O)(=O)c1ccc(NC(=O)C(F)(F)C(F)F)nc1-c1nc2cc(C(F)(F)F)ncc2n1C [Example 8] | 100 | 90 |  | 2.80 | 2.12 | kill in % (Lucilia cuprina): 100%; kill in % (Ctenocephalides felis): 100%; kill in % (Musca domestica): 100%
CCS(=O)(=O)c1ccc(N)nc1-c1nc2cc(C(F)(F)C(F)(F)F)ncc2n1C [Example 67] | 100 | 90 | 100 | 2.14 | 2.14 | efficacy in % (Spodoptera frugiperda): 100%
CCNc1ccc(S(=O)(=O)CC)c(-c2nc3cc(C(F)(F)F)ncc3n2C)n1 [Example 56] | 100 | 100 | 90 |  |  | logP-acidic [1, 2]: 2.37; logP-neutral [1, 7]: 2.35; nematicidal efficacy in % (Meloidogyne incognita): 100%
CCS(=O)(=O)c1ccc(SC(C)C)nc1-c1nc2cc(C(F)(F)F)ncc2n1C [Example 29] |  |  |  |  |  | logP-acidic [1, 2]: 3.62; logP-neutral [1, 7]: 3.53; nematicidal efficacy in % (Meloidogyne incognita): 90%
CCS(=O)(=O)c1ccc(C(=O)NC2CC2)nc1-c1nc2cc(C(F)(F)F)ncc2n1C [Example 33] |  |  | 90 | 2.34 | 2.27 | efficacy in % (Phaedon cochleariae; 100 g/ha): 83%
CCOc1ccc(S(=O)(=O)CC)c(-c2nc3cc(C(F)(F)F)ncc3n2C)n1 [Example 10, 2-[6-Ethoxy-3-(ethylsulphonyl)pyridin-2-yl]-3-methyl-6-(trifluoromethyl)-3H-imidazo[4,5-c]pyridine] |  |  |  |  |  | chromatographic logP [1, 3]: 2.94; chromatographic logP [1, 4]: 2.86; chromatographic logP [1, 5]: 2.86; pest or weed control at 500 g/ha (Phaedon cochleariae; 500 g/ha): 100%; kill in % (Lucilia cuprina): 100%; pest or weed control at 500 g/ha (Myzus persicae; [6]): 90%; efficacy in % (Spodoptera frugiperda): 83%; kill in % (Musca domestica): 90%
